Test results as given in patent US8802597B2, “Herbicidal pyrimidines” (E I du Pont de Nemours and Company, priority 2003, dated 2014).

Tests used:
Test in all cases: Test B flooded paddy test
Assay type in all cases: in vivo
Conditions in all cases: Flood, scale 0 to 100
[1] = tested on: umbrella sedge (Cyperus difformis)
How it was run: (§1)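 Plants were grown to the 2-leaf stage before treatment, then kept in a greenhouse for 13 to 15 days. Injury was rated visually against untreated controls on a 0 to 100 scale, where 0 is no effect and 100 is complete control.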

[2] = tested on: rice (Oryza sativa)
How it was run: as §1

[3] = tested on: barnyardgrass (Echinochloa crus-galli)
How it was run: as §1

[4] = tested on: duck salad (Heteranthera limosa)
How it was run: as §1

[5] = Cyperus difformis, 125 g ai/ha, read-out: Plant response rating, Sedge, Umbrella
[6] = Cyperus difformis, 500 g ai/ha, read-out: Plant response rating, Sedge, Umbrella
[7] = Oryza sativa, 125 g ai/ha, read-out: Plant response rating, Rice
[8] = Oryza sativa, 500 g ai/ha, read-out: Plant response rating, Rice
[9] = Echinochloa crus-galli, 125 g ai/ha, read-out: Plant response rating, Barnyardgrass
[10] = Echinochloa crus-galli, 500 g ai/ha, read-out: Plant response rating, Barnyardgrass
[11] = Heteranthera limosa, 125 g ai/ha, read-out: Plant response rating, Ducksalad
[12] = Heteranthera limosa, 500 g ai/ha, read-out: Plant response rating, Ducksalad

Compound | pest or weed control at 125 g/ha [1, 5] | pest or weed control at 500 g/ha [1, 6] | plant injury at 125 g/ha [2, 7] | plant injury at 500 g/ha [2, 8] | pest or weed control at 125 g/ha [3, 9] | pest or weed control at 500 g/ha [3, 10] | pest or weed control at 125 g/ha [4, 11] | pest or weed control at 500 g/ha [4, 12] | also measured
CCOC(=O)c1nc(-c2ccc(Cl)cc2)nc(N)c1Cl [Compound 64, ethyl 6-amino-5-chloro-2-(4-chlorophenyl)-4-pyrimidinecarboxylate] | 0% | 90% | 0% | 0% | 0% | 0% | 90% | 100% | pest or weed control at 62 g/ha ([1]; Cyperus difformis, 62 g ai/ha, read-out: Plant response rating, Sedge, Umbrella): 0%; pest or weed control at 250 g/ha ([1]; Cyperus difformis, 250 g ai/ha, read-out: Plant response rating, Sedge, Umbrella): 70%; plant injury at 62 g/ha ([2]; Oryza sativa, 62 g ai/ha, read-out: Plant response rating, Rice): 0%; plant injury at 250 g/ha ([2]; Oryza sativa, 250 g ai/ha, read-out: Plant response rating, Rice): 0%; pest or weed control at 62 g/ha ([3]; Echinochloa crus-galli, 62 g ai/ha, read-out: Plant response rating, Barnyardgrass): 0%; pest or weed control at 250 g/ha ([3]; Echinochloa crus-galli, 250 g ai/ha, read-out: Plant response rating, Barnyardgrass): 0%; pest or weed control at 62 g/ha ([4]; Heteranthera limosa, 62 g ai/ha, read-out: Plant response rating, Ducksalad): 80%; pest or weed control at 250 g/ha ([4]; Heteranthera limosa, 250 g ai/ha, read-out: Plant response rating, Ducksalad): 100%
Cc1ccc(-c2nc(N)c(Cl)c(C(=O)O)n2)cc1 [Compound 91] |  |  |  |  |  |  |  |  | Plant response rating, Sedge, Umbrella ([1]; 125 g ai/ha): 80; Plant response rating, Sedge, Umbrella ([1]; 500 g ai/ha): 90; Plant response rating, Rice ([2]; 125 g ai/ha): 0; Plant response rating, Rice ([2]; 500 g ai/ha): 0; Plant response rating, Barnyardgrass ([3]; 125 g ai/ha): 0; Plant response rating, Barnyardgrass ([3]; 500 g ai/ha): 20; Plant response rating, Ducksalad ([4]; 125 g ai/ha): 100; Plant response rating, Ducksalad ([4]; 500 g ai/ha): 100
COC(=O)c1nc(-c2ccc(Br)cc2)nc(N)c1Cl [Compound 96, methyl 6-amino-2-(4-bromophenyl)-5-chloro-4-pyrimidinecarboxylate] | 90% | 90% | 0% | 0% | 0% | 10% | 100% | 100% | 
